# Values quoted from earlier work in patent US5874549A, “Acid-cleavable compound” (NeoRx Corporation, priority 1993, dated 1999).
# Details: relative to Cpd 1 = 1
row,Structure (SMILES),Relative Rate (hydrolysis of the amide group)
1,CNC(=O)/C=C\C(=O)O [Cpd 1],1
2,CNC(=O)/C=C(/C)C(=O)O [Cpd 2],31.2
3,CC/C(=C/C(=O)NC)C(=O)O [Cpd 3],32.8
4,CNC(=O)/C=C(\C(=O)O)C(C)C [Cpd 4],44.5
5,CNC(=O)/C=C(\C(=O)O)C(C)(C)C [Cpd 5],68.0
6,CCCNC(=O)/C(C)=C(/C)C(=O)O [Cpd 6],2.35 × 10^4
7,CNC(=O)C1=C(C(=O)O)CCCC1 [Cpd 7],540
8,CNC(=O)C1=C(C(=O)O)CCC1 [Cpd 8],4.2 × 10^-5
9,CNC(=O)C1=C(C(=O)O)CC1 [Cpd 9],4.2 × 10^-6
10,CNC(=O)c1ccccc1C(=O)O [Cpd 10],0.72
11,CC(C)NC(=O)/C=C\C(=O)O [Cpd 11],0.7
12,CC(C)(C)NC(=O)/C=C\C(=O)O [Cpd 12],2.6
13,O=C(O)/C=C\C(=O)Nc1ccccc1 [Cpd 13],4.5
14,CN(C)C(=O)/C=C\C(=O)O [Cpd 14],42.7
15,C=CC(=O)NC [N-methyl acrylamide],~1.4 × 10^-7
